Data published in patent US10219516B2, “Molecules having pesticidal utility, and intermediates, compositions, and processes, related thereto” (priority 2015, dated 2019).
Where two headings read alike, the source gives them in different places.

Assays:
Format in all cases: in vivo
[1] = tested on: Beet Armyworm (Spodoptera exigua, LAPHEG); test: Bioassay on Beet Armyworm (BAW), 128-well diet tray assay
Summary of the method: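 In a 128-well format, eight wells per compound received a surface dose of 50 μg/cm^2 on artificial diet. After drying, each well got one to five second instar larvae, held at 25° C. with 14:10 photoperiod. Mortality percentages after five to seven days were averaged.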

[2] = tested on: Yellow Fever Mosquito (Aedes aegypti, AEDSAE); test: Bioassay on Yellow Fever Mosquito (YFM), 96-well plate larval assay; details: for YFM rating: Yellow Fever Mosquito, 96-well plate larval assay; for YFM (Biological Results, rating): Species YFM (Yellow Fever Mosquito)
Summary of the method: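 Each well was scored for mortality after 3 days at room temperature under a non-evaporative lid. Test molecules came from DMSO masters (4000 ppm stock) diluted with water/acetone 90:10 and dispensed into six replicate plates, which were then infested with roughly 1-day-old larvae in liver-powder water.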

[3] = tested on: Cabbage Looper (Trichoplusia ni, TRIPNI); test: Bioassay on Cabbage Looper (CL), 128-well diet tray assay; details: Trichoplusia ni
Summary of the method: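 Mortality of second instar larvae exposed to diet coated with 50 μg/cm^2 compound (acetone-water 90:10 vehicle, dried); 25° C., 5–7 days.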

[4] = tested on: Green Peach Aphid (Myzus persicae, MYZUPE); test: Bioassay on Green Peach Aphid (GPA), foliar spray on infested cabbage seedlings; details: 72 h
Summary of the method: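 Cabbage seedlings (2-3 true leaves) infested with 20-50 wingless adult and nymph aphids one day before treatment; sprayed to runoff at 200 ppm in 0.025% Tween 20 water with 20% acetone/methanol, four pots per treatment. Held three days at about 25° C; live aphids counted, % control by Abbott's correction versus solvent check.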

[5] = Beet Armyworm, 128-well diet tray assay, read-out: BAW rating
[6] = Cabbage Looper, 128-well diet tray assay, read-out: CL rating
[7] = Green Peach Aphid, foliar spray on cabbage seedlings, read-out: GPA rating
[8] = Species BAW (Beet Armyworm), read-out: BAW (Biological Results, rating)
[9] = Species CL (Cabbage Looper), read-out: CL (Biological Results, rating)
[10] = foliar, Species GPA (Green Peach Aphid), read-out: GPA (Biological Results, rating)

Structure (SMILES) | pest or weed control at 50 µg/cm2 [1, 5] [%] | YFM rating [2] | pest or weed control at 50 µg/cm2 [3, 6] [%] | pest or weed control at 200 µg/mL [4, 7] [%] | pest or weed control at 50 µg/cm2 [1, 8] [%] | YFM (Biological Results, rating) [2] | pest or weed control at 50 µg/cm2 [3, 9] [%] | pest or weed control at 200 µg/mL [4, 10] [%]
O=C(Nc1ccc(F)cc1F)c1cc(NC(=O)[C@H]2[C@H](c3cc(F)cc(Br)c3)C2(Cl)Cl)ccc1Cl (relative stereo) [F423, 5-(trans)-(3-(3-Bromo-5-fluorophenyl)-2,2-dichlorocyclopropane-1-carboxamido)-2-chloro-N-(2,4-difluorophenyl)benzamide] | 50 to 100 | A (80-100) | 50 to 100 | 80 to 100 | – | – | – | –
CN(C(=O)c1cc(NC(=O)[C@H]2[C@H](c3ccc(F)c(Cl)c3)C2(Cl)Cl)ccc1Cl)c1ccc(F)cc1 (relative stereo) [PF5, trans-2-Chloro-5-(2,2-dichloro-3-(3-chloro-4-fluorophenyl)cyclopropane-1-carboxamido)-N-(4-fluorophenyl)-N-methylbenzamide] | 50 to 100 | A (80-100) | 50 to 100 | 80 to 100 | – | – | – | –
CN(C(=O)c1cc(NC(=O)[C@H]2[C@H](c3cc(Cl)cc(Cl)c3)C2(Cl)Cl)ccc1Cl)c1ccc(F)cc1 (relative stereo) [F19, trans-2-Chloro-5-(2,2-dichloro-3-(3,5-dichlorophenyl)cyclopropane-1-carboxamido)-N-(4-fluorophenyl)-N-methylbenzamide] | – | – | – | – | 50 to 100 | A (80-100) | 50 to 100 | 80 to 100
CCc1cccc(C)c1NC(=O)c1cc(NC(=O)[C@H]2[C@H](c3cc(Cl)cc(Cl)c3)C2(Cl)Cl)ccc1Cl (relative stereo) [F42, trans-2-Chloro-5-(2,2-dichloro-3-(3,5-dichlorophenyl)cyclopropane-1-carboxamido)-N-(2-ethyl-6-methylphenyl)benzamide] | – | – | – | – | 50 to 100 | A (80-100) | 50 to 100 | 0 to 80
O=C(Nc1ccc(F)cc1)c1cc(NC(=O)[C@H]2[C@H](c3ccc(F)c(Cl)c3)C2(Cl)Cl)ccc1Cl (relative stereo) [PF4, trans-2-Chloro-5-(2,2-dichloro-3-(3-chloro-4-fluorophenyl)cyclopropane-1-carboxamido)-N-(4-fluorophenyl)benzamide] | 50 to 100 | B (More than 0-Less than 80) | 50 to 100 | 80 to 100 | – | – | – | –
O=C(Nc1ccc(F)cc1)c1cc(NC(=O)[C@@H]2[C@@H](c3cc(Cl)c(Cl)c(Cl)c3)C2(Cl)Cl)ccc1Cl [F280, 2-Chloro-5-((1S,3S)-2,2-dichloro-3-(3,4,5-trichlorophenyl)cyclopropane-1-carboxamido)-N-(4-fluorophenyl)benzamide] | – | – | – | – | 50 to 100 | A (80-100) | 50 to 100 | 0 to 80
O=C(Nc1ccc(F)cc1)c1cc(NC(=O)[C@H]2[C@H](c3ccc(OC(F)(F)F)c(Cl)c3)C2(Cl)Cl)ccc1Cl (relative stereo) [F79, trans-2-Chloro-5-(2,2-dichloro-3-(3-chloro-4-(trifluoromethoxy)phenyl)cyclopropane-1-carboxamido)-N-(4-fluorophenyl)benzamide] | – | – | – | – | 50 to 100 | B (More than 0-Less than 80) | 50 to 100 | 80 to 100
O=C(Nc1c(F)cccc1F)c1cc(NC(=O)[C@H]2[C@H](c3cc(Cl)cc(Cl)c3)C2(Cl)Cl)ccc1Cl (relative stereo) [F25, trans-2-Chloro-5-(2,2-dichloro-3-(3,5-dichlorophenyl)cyclopropane-1-carboxamido)-N-(2,6-difluorophenyl)benzamide] | – | – | – | – | 50 to 100 | A (80-100) | 50 to 100 | 80 to 100
O=C(Nc1ccc(F)cc1)c1cccc(NC(=O)[C@H]2[C@H](c3cc(Cl)cc(Cl)c3)C2(Cl)Cl)c1F (relative stereo) [F15, trans-3-(2,2-Dichloro-3-(3,5-dichlorophenyl)cyclopropane-1-carboxamido)-2-fluoro-N-(4-fluorophenyl)benzamide] | – | – | – | – | 50 to 100 | A (80-100) | 50 to 100 | 0 to 80
O=C(Nc1ccncc1)c1cc(NC(=O)[C@H]2[C@H](c3cc(Cl)cc(Cl)c3)C2(Cl)Cl)ccc1Cl (relative stereo) [F26, trans-2-Chloro-5-(2,2-dichloro-3-(3,5-dichlorophenyl)cyclopropane-1-carboxamido)-N-(pyridin-4-yl)benzamide] | – | – | – | – | 50 to 100 | A (80-100) | 50 to 100 | 0 to 80
O=C(Nc1ccc2ncsc2c1)c1cc(NC(=O)C2C(c3cc(Cl)cc(Cl)c3)C2(Cl)Cl)ccc1Cl (stereo not drawn) [F434, N-(Benzo[d]thiazol-6-yl)-2-chloro-5-(trans)-2,2-dichloro-3-(3,5-dichlorophenyl)cyclopropane-1-carboxamido)benzamide] | 50 to 100 | A (80-100) | 50 to 100 | 0 to 80 | – | – | – | –
O=C(Nc1ccccc1Cl)c1cc(NC(=O)[C@H]2[C@H](c3cc(Cl)cc(Cl)c3)C2(Cl)Cl)ccc1Cl (relative stereo) [F38, trans-2-Chloro-N-(2-chlorophenyl)-5-(2,2-dichloro-3-(3,5-dichlorophenyl)cyclopropane-1-carboxamido)benzamide] | – | – | – | – | 50 to 100 | A (80-100) | 50 to 100 | 80 to 100
CN(C(=O)c1cc(NC(=O)[C@H]2[C@H](c3cc(Cl)cc(Cl)c3)C2(Cl)Cl)ccc1Cl)c1ccc(F)cc1F (relative stereo) [F44, trans-2-Chloro-5-(2,2-dichloro-3-(3,5-dichlorophenyl)cyclopropane-1-carboxamido)-N-(2,4-difluorophenyl)-N-methylbenzamide] | – | – | – | – | 50 to 100 | A (80-100) | 50 to 100 | 80 to 100
O=C(Nc1ccc(F)cc1)c1cc(NC(=O)[C@H]2[C@H](c3ccc(Cl)c(Cl)c3)C2(Cl)Cl)ccc1Cl (relative stereo) [F14, trans-2-Chloro-5-(2,2-dichloro-3-(3,4-dichlorophenyl)cyclopropane-1-carboxamido)-N-(4-fluorophenyl)benzamide] | – | – | – | – | 50 to 100 | A (80-100) | 50 to 100 | 80 to 100
O=C(Nc1ccc(F)cc1F)c1cc(NC(=O)[C@H]2[C@H](c3cc(F)cc(C(F)(F)F)c3)C2(Cl)Cl)ccc1Cl (relative stereo) [F412, 2-Chloro-5-(trans)-(2,2-dichloro-3-(3-fluoro-5-(trifluoromethyl)phenyl)cyclopropane-1-carboxamido)-N-(2,4-difluorophenyl)benzamide] | 50 to 100 | A (80-100) | 50 to 100 | 80 to 100 | – | – | – | –
Nc1c(F)ccc(NC(=O)c2cc(NC(=O)[C@H]3[C@H](c4ccc(Cl)c(Br)c4)C3(Cl)Cl)ccc2Cl)c1F [F579, N-(3-Amino-2,4-difluorophenyl)-5-((1R,3R)-3-(3-bromo-4-chlorophenyl)-2,2-dichlorocyclopropane-1-carboxamido)-2-chlorobenzamide] | 50 to 100 | A (80-100) | 50 to 100 | 80 to 100 | – | – | – | –
O=C(Nc1c(F)cc(F)cc1F)c1cc(NC(=O)[C@H]2[C@H](c3cc(Cl)cc(Cl)c3)C2(Cl)Cl)ccc1Cl (relative stereo) [F24, trans-2-Chloro-5-(2,2-dichloro-3-(3,5-dichlorophenyl)cyclopropane-1-carboxamido)-N-(2,4,6-trifluorophenyl)benzamide] | – | – | – | – | 50 to 100 | A (80-100) | 50 to 100 | 80 to 100
CCCN(C(=O)c1cc(NC(=O)[C@H]2[C@H](c3cc(Cl)cc(Cl)c3)C2(Cl)Cl)ccc1Cl)c1ccc(F)cc1 (relative stereo) [F101, trans-2-Chloro-5-(2,2-dichloro-3-(3,5-dichlorophenyl)cyclopropane-1-carboxamido)-N-(4-fluorophenyl)-N-propylbenzamide] | – | – | – | – | 50 to 100 | A (80-100) | 50 to 100 | 0 to 80
O=C(Nc1cccc(F)c1)c1cc(NC(=O)[C@H]2[C@H](c3ccc(Cl)c(Cl)c3)C2(Cl)Cl)ccc1Cl (relative stereo) [F51, trans-2-Chloro-5-(2,2-dichloro-3-(3,4-dichlorophenyl)cyclopropane-1-carboxamido)-N-(3-fluorophenyl)benzamide] | – | – | – | – | 50 to 100 | A (80-100) | 50 to 100 | 80 to 100
